Assay results from patent EP1012175B1, “A PEPTIDE WITH AN AFFINITY FOR CLOTTING FACTOR VIII” (Octapharma AG, priority 1997, dated 2003).
Entries after “also recorded” stand apart in the source; their conditions may differ.

Assays:
[1] = test system: rekombinanten Faktor VIII; test: Membrane spot binding test: immobilised peptides incubated with recombinant factor VIII (Kogenate), detected with anti-FVIII antibodies; conditions: peptide immobilised on membrane; Kogenate 250 U in 10 ml PBS pH 7.0 with 1% BSA, 2 h; binders appear as coloured spots
Procedure: (§1) Die Peptide Seq. Id. No. 55 bis 90 wurden auf einer Membran immobilisiert. Nach Äquilibrieren mit PBS Puffer pH 7.0 wurde eine Membran mit Faktor VIII Octavi® (240 Units in 10 ml PBS pH 7.0 mit 1% BSA), eine andere mit Kogenate® (250 U in 10 ml PBS, pH 7.0 mit 1% BSA) und eine nur mit PBS, pH 7.0 mit 1% BSA für zwei Stunden inkubiert. Die mit den Peptiden besetzten Membranen wurden sorgfältig mit PBS Puffer pH 7.0 gewaschen und anschließend mit den Anti-FVIII Antikörpern (Chemicon International Inc., MAB038, Sera-Lab MAS 530, MAS 531, MAS 532) für eine Stunde versetzt. Nach Waschen und Inkubieren mit Anti-Maus-IgG/alkalische Phosphatase Konjugat (1:1000, Sigma Chemicals, A-4338) wurde mit Hilfe von NBT und BCIP in 0,1 M Trispuffer, pH 9,2, entwickelt. Faktor VIII bindende Peptide erschienen als gefärbte Spots. Die Kontrollmembran (nur mit PBS pH 7.0 ohne Faktor VIII) wurde mit den beiden anderen verglichen.

[2] = test system: pdFVIII (Faktor VIII aus Plasma); test: Membrane spot binding test: immobilised peptides incubated with plasma-derived factor VIII (Octavi), detected with anti-FVIII antibodies; set-up: species or system human; conditions: peptide immobilised on membrane; Octavi 240 Units in 10 ml PBS pH 7.0 with 1% BSA, 2 h; binders appear as coloured spots
Procedure: as §1

[3] = test system: rekombinantem Faktor VIII aus Kogenate®; test: Affinity chromatography of recombinant factor VIII (Kogenate) on peptide membranes; eluates analysed by Western blot; format: binding; conditions: for Western Blot der Eluate: eluate of rFVIII (Kogenate) run, control membrane also positive; for Elutionspeak: rFVIII (Kogenate), elution with 0,1 M Glycin pH 3.0, compared with ßAla-ßAla control membrane
Description: (§2) Aus Membranen, auf die die jeweiligen Peptide immobilisiert wurden, wurden jeweils 30 Scheiben mit einem Durchmesser von 11 mm ausgestanzt. Diese wurden in eine HR 10 Säule (Pharmacia Biotechnology, Uppsala, Schweden) gepackt und zwischen zwei Stempeln fixiert.
(§3) Für alle chromatographischen Experimente wurde das Chromatographiesystem ProSys (Biosepra Inc. Marlborough, USA) verwendet.
(§4) PBS Puffer pH 7.0 wurde als Äquilibrierungs- und Waschpuffer verwendet. Für die Elution wurde ein 0,1 M Glycinpuffer pH 3.0 angewandt. Die Flußgeschwindigkeit betrug bei allen Versuchen 0,1 ml/min.
Die Bindung von rekombinantem Faktor VIII wurde mittels Kogenate® (Firma Bayer) untersucht. Jeweils 400 µl des Präparates (200 Units) wurden mit 1.400 µl destilliertem Wasser verdünnt und anschließend mit einer Flußrate von 0,1 ml/min auf den Affinitätsträger aufgetragen. Das Waschen erfolgte wiederum mit PBS, pH 7.0 und die darauf folgende Elution mit 0,1 M Glycin, pH 3.0. Die Fraktionen wurden mittels SDS-Page unter reduzierenden Bedingungen und Western-Blot analysiert.
(§5) Der Durchlauf und die Eluate aller Läufe wurden gesammelt und mittels SDS-PAGE unter reduzierenden Bedingungen und Western-Blot analysiert.
Für die Auftrennung wurden 4 bis 20% Tris-Glycin Gele von Novex verwendet. […] Nach der Trennung wurden die Gele silbergefärbt und eingescannt.
Nach Beendigung der elektrophoretischen Trennung wurden die Gele auf eine Nitrocellulose Membran bei 200 mA konstant für zwei Stunden elektrogeblottet. Anschließend wurde die Membran mit PBS + 3% BSA für zwei Stunden blockiert. […] Die Entwicklung erfolgte mit 0,1 M Tris, pH 9.2, NBT und BCIP.
(§6) Die Affinitätschromatographie wurde wie im Beispiel 1 beschrieben, durchgeführt.

pdFVIII = test: Affinity chromatography of pdFVIII on peptide membranes; eluates analysed by SDS-PAGE and Western blot; format: binding, human; conditions: for Banden in der SDS-PAGE unter reduzierenden Bedingungen und Silberfärbung / Western Blot des Eluates: eluate of pdFVIII run; for Banden in der SDS-PAGE unter reduzierenden Bedingungen und Silberfärbung / Elutionspeak: compared with (βAla)2 control membrane; for Western Blot des Eluates: control membrane weakly positive; for Eignung für die Affinitätschromatographie von pdFVIII: general statement of the description; for Elutionspeak: pdFVIII, elution with 0,1 M Glycin pH 3.0
Description: as §2, §3, §4
Lyophilisierter Faktor VIII aus Plasma wurde in 11 ml destilliertem Wasser zu einer Konzentration von 90 Units/ml aufgelöst. Davon wurden jeweils 4 ml mit einer Flußrate von 0,1 ml/min aufgetragen. Anschließend wurden die Affinitätsträger mit PBS-Puffer pH 7.0 gewaschen bis das UV Signal (280 nm) wieder die Basislinie erreichte. Das gebundene Material wurde mit 0,1 M Glycin pH 3.0 eluiert. Die gesammelten Fraktionen wurde mittels SDS-Page unter reduzierenden Bedingungen und Western Blot analysiert. Auf diese Weise wurden Peptide und der ßAla-ßAla-Blank auf ihre Fähigkeit Faktor VIII aus dem Octavipräparat zu binden untersucht.
as §5
Für die Auftrennung wurden 4 bis 20% Tris-Glycin Gele von Novex verwendet. Die Proben wurden mit SDS-Probepuffer (1,5 M Tris HCl pH 8.45, 1,2 ml Glycerin, 0,4 g SDS, 0,1% Coomassie Blue, 0,1% Phenol Rot pro 10 ml), und 5% ß-Mercaptoethanol versetzt und über Nacht bei 4°C inkubiert. Nach der Trennung wurden die Gele silbergefärbt und eingescannt.
Nach Beendigung der elektrophoretischen Trennung wurden die Gele auf eine Nitrocellulose Membran bei 200 mA konstant für zwei Stunden elektrogeblottet. Anschließend wurde die Membran mit PBS + 3% BSA für zwei Stunden blockiert. Nach Waschen mit PBS Puffer erfolgte die Zugabe der Anti-FVIII Antikörpermischung (Chemicon International Inc., MAB038, Sera-Lab MAS 530, MAS 531, MAS 532) für zwei Stunden. Nach Waschen mit PBS wurde mit Anti Maus IgG alkalische Phosphatase (1:1000, Sigma Chemicals, A-3438) für eine Stunde inkubiert. Die Entwicklung erfolgte mit 0,1 M Tris, pH 9.2, NBT und BCIP.
as §6

Substance	Bindung von rekombinantem Faktor VIII [1]	Bindung zu pdFVIII (Faktor VIII aus Plasma) [2]	other results
61 (VMKSCEYC) [compound 61]	keinen rekombinanten Faktor VIII	Bindung zu pdFVIII	–
66 (VMKSWEEF) [compound 66]	auffallende Affinität; also recorded: binden rekombinanten Faktor VIII	auffallende Affinität; also recorded: Bindung zu pdFVIII	Western Blot der Eluate [3]: positiv; Eignung für die Affinitätschromatographie von rFVIII (rekombinantem Faktor VIII) ([3]; general statement of the description): eignen sich insbesondere; Elutionspeak [3]: deutlich größer; Banden in der SDS-PAGE unter reduzierenden Bedingungen und Silberfärbung (pdFVIII): intensiver gefärbte Banden; Western Blot des Eluates (pdFVIII): positiv; Eignung für die Affinitätschromatographie von pdFVIII (pdFVIII): eignen sich insbesondere; Elutionspeak (pdFVIII): größere Elutionspeaks
68 (EWIKCEEF) [compound 68]	binden rekombinanten Faktor VIII	–	–
71 (EWIKWEYC) [compound 71]	binden rekombinanten Faktor VIII	Bindung zu pdFVIII	–
72 (EWIKWEEF) [compound 72]	auffallende Affinität; also recorded: binden rekombinanten Faktor VIII	auffallende Affinität; also recorded: Bindung zu pdFVIII	Banden in der SDS-PAGE unter reduzierenden Bedingungen und Silberfärbung (pdFVIII): intensiver gefärbte Banden; Western Blot des Eluates (pdFVIII): positiv; Eignung für die Affinitätschromatographie von pdFVIII (pdFVIII): eignen sich insbesondere; Elutionspeak (pdFVIII): größere Elutionspeaks
76 (EWKSEFEF) [compound 76]	–	Bindung zu pdFVIII	–
77 (EWKSWEYC) [compound 77]	–	Bindung zu pdFVIII	–
78 (EWKSWEEF) [compound 78]	auffallende Affinität	auffallende Affinität; also recorded: Bindung zu pdFVIII	–
84 (EYIKWEEF) [compound 84]	auffallende Affinität	auffallende Affinität	–
89 (EYKSWEYC) [compound 89]	auffallende Affinität	auffallende Affinität; also recorded: Bindung zu pdFVIII	–
EYKSWEEF [Seq. Id. No. 90, Peptid, 8 Aminosäuren]	auffallende Affinität	auffallende Affinität; also recorded: Bindung zu pdFVIII	Western Blot der Eluate [3]: positiv; Elutionspeak [3]: deutlich größer
